The values that follow come from patent US10940139B2, “Compounds that interact with the Ras superfamily for the treatment of cancers, inflammatory diseases, rasopathies, and fibrotic disease” (Shy Therapeutics LLC, priority 2017, dated 2021).

For the first experiment, the system named is MIA-PACA2 pancreatic cancer cell lines. The experiment is described as follows: Cell proliferation assay (CellTiter 96 AQueous One). It is filed as cell-based. As to conditions: Homo sapiens, MIA PaCa-2; MIA-PACA2, same assay as the % inhibition (standard conditions).
One may read the IC50 as the concentration that gives 50% inhibition. Regarding `O=C(c1csc2c(O)nc(-c3ccccn3)nc12)N1CCN(c2ccccc2)CC1` [drawing 1569], the concentration for half-maximal inhibition (IC50) was in the range of 100 to 500 nM.

Take `COc1ccnc(-c2nc(O)c3ccsc3n2)c1` [drawing 1631]: the IC50 was 100 to 500 nM.

`Oc1nc(-c2ccccn2)nc2c(-c3ccccc3Cl)csc12` [drawing 1582]: the IC50 is 100 to 500 nM.

The same experiment, now with this note: Homo sapiens, MIA PaCa-2; at 30 μM, MIA-PACA2.
The inhibition is the drop in the measured response relative to a control, in per cent. Read a high inhibition as a strong effect. `COc1cc(CNc2nc(-c3ccccn3)nc3scc(-c4ccccc4)c23)ccc1OCC(N)=O` gave an inhibition at 30 µM of 76 to 100%.

For `O=S1(=O)CCN(Cc2cccc(-c3csc4c(O)nc(-c5ccccn5)nc34)c2)CC1` [drawing 1740], the inhibition at 30 µM was in the range of 76 to 100%.

`CCn1nnc2cc(C(=O)Nc3nnc(-c4ccccn4)[nH]3)ccc21` [drawing 1420] showed an inhibition at 30 µM of 51 to 75%.

`COC(=O)c1cncc(C(=O)Nc2nnc(-c3ccccn3)[nH]2)c1` [drawing 1441] gave an inhibition at 30 µM of 25 to 50%.

The molecule `Cc1cccc(C(=O)Nc2nnc(-c3ccccn3)[nH]2)n1` [drawing 1436] registered an inhibition at 30 µM of 51 to 75%.

The molecule `c1ccc(-c2csc3nc(-c4ccccn4)nc(N4CCN(CCN5CCCC5)CC4)c23)cc1` [drawing 1616] gave an inhibition at 30 µM of 76 to 100%.

In turn, `COc1ccc(CCC(=O)Nc2nnc(-c3ccccn3)[nH]2)cc1` [drawing 1398] gave an inhibition at 30 µM of 51 to 75%.

`O=C(O)c1cc2nc(-c3ccccn3)nc(O)c2s1` [drawing 1726] gave an inhibition at 30 µM of 51 to 75%.

The molecule `O=C(Nc1nnc(-c2ccccn2)[nH]1)c1ccc(NC(=O)c2ccccn2)cc1` [drawing 1440] gave an inhibition at 30 µM of 25 to 50%.

Consider `Cc1sc2c(O)nc(-c3ccccn3)nc2c1-c1cccnc1` [drawing 1790], for which the inhibition at 30 µM lay in the range of 76 to 100%.

Consider `CN(CC(=O)Nc1nnc(-c2ccccn2)[nH]1)Cc1ccccc1` [drawing 1449], for which the inhibition at 30 µM was in the range of 51 to 75%.

The molecule `Oc1nc(-c2ccccn2)nc2sccc12` [drawing 1590] gave an inhibition at 30 µM of 76 to 100%.

Take `O=C1CCN(c2nc(-c3ccccn3)nc3scc(-c4ccccc4)c23)CC1` [drawing 1627]: the inhibition at 30 µM is 76 to 100%.

On to `COc1ccc(N2CCN(C(=O)c3csc4c(O)nc(-c5ccccn5)nc34)CC2)cc1O` [drawing 1695], for which the inhibition at 30 µM lay in the range of 76 to 100%.

Consider `c1ccc(-c2nc(NCC3CCCO3)c3ccsc3n2)nc1` (stereo not drawn) [drawing 1591], for which the inhibition at 30 µM lay within 76 to 100%.

In turn, `O=C(Nc1nnc(-c2ccccn2)[nH]1)c1ccc(Oc2ccccc2)nc1` [drawing 1410] showed an inhibition at 30 µM of 51 to 75%.

Regarding `O=C(NCCc1ccnc(O)c1)c1csc2nc(-c3ccccn3)nc(N3CCOCC3)c12` [drawing 1676], the inhibition at 30 µM lay within 51 to 75%.

For the molecule `CCN(CC)S(=O)(=O)c1cc(C)c(C)c(NC(=O)CCc2c(C)nc(-c3ccccn3)nc2O)c1` [drawing 1508], the inhibition at 30 µM lay in the range of 76 to 100%.

The molecule `NC(=O)c1ccc(OCC(=O)Nc2nnc(-c3ccccn3)[nH]2)cc1` [drawing 1450] registered an inhibition at 30 µM of 1 to 25%.

Take `O=C(c1csc2c(O)nc(-c3ccccn3)nc12)N1CCOC(c2ccccc2Cl)C1` (stereo not drawn) [drawing 1662]: the inhibition at 30 µM is 76 to 100%.

As to `O=C(Nc1nnc(-c2ccccn2)[nH]1)C1Cc2ccccc2O1` (stereo not drawn) [drawing 1422], the inhibition at 30 µM was 1 to 25%.

Consider `O=C(COCc1ccccc1Cl)Nc1nnc(-c2ccccn2)[nH]1` [drawing 1431], for which the inhibition at 30 µM lay within 76 to 100%.

Regarding `N#Cc1ccc2c(c1)CCCC2C(=O)Nc1ccnc(-c2ccccn2)n1` (stereo not drawn) [drawing 1731], the inhibition at 30 µM was in the range of 76 to 100%.

`O=C(c1csc2c(O)nc(-c3ccccn3)nc12)N1CCN(Cc2ccc(O)c(Cl)c2)CC1` [drawing 1658] gave an inhibition at 30 µM of 76 to 100%.

As for `CC(Oc1ccccc1Cl)C(=O)Nc1nnc(-c2ccccn2)[nH]1` (stereo not drawn) [drawing 1396], the inhibition at 30 µM was 76 to 100%.

In turn, `O=C(c1csc2c(O)nc(-c3ccccn3)nc12)N1CCN(Cc2ccc(O)cc2)CC1` [drawing 1657] registered an inhibition at 30 µM of 1 to 25%.

For the molecule `Cc1sc2nc(-c3ccccn3)nc(NCCc3nccn3C)c2c1-c1ccccc1` [drawing 1597], the inhibition at 30 µM lay within 76 to 100%.

`O=C(Nc1nnc(-c2ccccn2)[nH]1)c1ccc2c(c1)CCO2` [drawing 1386]: the inhibition at 30 µM fell in the range of 76 to 100%.

`O=C(c1csc2c(O)nc(-c3ccccn3)nc12)N1CCN(c2ccccc2)CC1` [drawing 1569] gave an inhibition at 30 µM of 76 to 100%.

As for `CN(CC(=O)Nc1nnc(-c2ccccn2)[nH]1)S(=O)(=O)c1ccccc1` [drawing 1467], the inhibition at 30 µM lay within 1 to 25%.

`O=C(c1csc2c(O)nc(-c3ccccn3)nc12)N1CCNC(c2cn[nH]c2)C1` (stereo not drawn) [drawing 1734] had an inhibition at 30 µM of 1 to 25%.

For `COCCCCN(C)C(=O)c1csc2nc(-c3ccccn3)nc(N3CCOCC3)c12` [drawing 1683], the inhibition at 30 µM was in the range of 76 to 100%.

As for `COc1cc(CCN(C)C(=O)c2csc3nc(-c4ccccn4)nc(N4CCOCC4)c23)ccn1` [drawing 1674], the inhibition at 30 µM is 76 to 100%.

For `c1ccc(-c2csc3nc(-c4ccccn4)nc(N4CCOCC4)c23)cc1` [drawing 1618], the inhibition at 30 µM fell in the range of 76 to 100%.

The molecule `O=C(Nc1nnc(-c2ccccn2)[nH]1)c1cccc(N2CCCS2(=O)=O)c1` [drawing 1452] displayed an inhibition at 30 µM of 1 to 25%.

As to `COc1ccnc(-c2nc(O)c3ccsc3n2)c1` [drawing 1631], the inhibition at 30 µM lay in the range of 76 to 100%.

Molecule `Cc1ccc(-c2ccc(Oc3ccc(C(F)(F)F)cn3)c(C)c2)cc1` [drawing 1526] had an inhibition at 30 µM of 76 to 100%.

Take `Cn1cc(C2CN(C(=O)c3csc4c(O)nc(-c5ccccn5)nc34)CCN2)cn1` (stereo not drawn) [drawing 1670]: the inhibition at 30 µM lay in the range of 1 to 25%.

Consider `Nc1nc(-c2ccccn2)nc2ccsc12` [drawing 1710], for which the inhibition at 30 µM was in the range of 1 to 25%.

As to `O=c1nc(-c2ccccn2)[nH]c2c1CCC2` [drawing 1498], the inhibition at 30 µM was 1 to 25%.

Regarding `O=C(Nc1nnc(-c2ccccn2)[nH]1)C1=NOC(c2ccccc2)C1` (stereo not drawn) [drawing 1455], the inhibition at 30 µM was 25 to 50%.

In the case of `COc1ccncc1CCNC(=O)c1csc2nc(-c3ccccn3)nc(N3CCOCC3)c12` [drawing 1673], the inhibition at 30 µM is 76 to 100%.

`CON(C)c1nc(-c2ccccn2)nc2scc(-c3ccccc3)c12` [drawing 1610] gave an inhibition at 30 µM of 76 to 100%.

For the molecule `O=C(CCCc1cccnc1)N1CCCc2c(O)nc(-c3ccccn3)nc21` [drawing 1556], the inhibition at 30 µM was 76 to 100%.

`Oc1nc(-c2ccccn2)nc2c(-c3ccccc3Cl)csc12` [drawing 1582] had an inhibition at 30 µM of 76 to 100%.

Molecule `O=C(NCCc1cncs1)c1csc2nc(-c3ccccn3)nc(N3CCOCC3)c12` [drawing 1643] came in with an inhibition at 30 µM of 76 to 100%.

Regarding `Oc1nc(-c2ccccn2)nc2c(-c3ccc(CN4CCOCC4)cc3)csc12` [drawing 1758], the inhibition at 30 µM was 76 to 100%.

`CC(=O)N1CCN(c2nc(-c3ccccn3)nc3scc(-c4ccccc4)c23)CC1` [drawing 1626] yielded an inhibition at 30 µM of 76 to 100%.

In turn, `CNC(=O)c1ccc(-c2csc3c(O)nc(-c4ccccn4)nc23)cc1C` [drawing 1761] registered an inhibition at 30 µM of 76 to 100%.

Molecule `O=C(Nc1nc(-c2ccccn2)cs1)c1cccc(F)c1` [drawing 1474] yielded an inhibition at 30 µM of 76 to 100%.

Molecule `CN(Cc1nnc(-c2ccccc2Cl)o1)Cc1ccccc1C(F)(F)F` [drawing 1406] returned an inhibition at 30 µM of 25 to 50%.

`COC(=O)c1cc(NC(=O)CCc2c(C)nc(-c3ccccn3)nc2O)ccc1Cl` [drawing 1506] returned an inhibition at 30 µM of 76 to 100%.

Turning to `Cc1cc2c(=O)nc(-c3cc(OCC(F)F)ccn3)[nH]c2s1` [drawing 1500], the inhibition at 30 µM was in the range of 76 to 100%.

`CCCOc1ccc2ccccc2c1CN(C)S(=O)(=O)N1CC(C)OC(C)C1` (stereo not drawn) [drawing 1531] displayed an inhibition at 30 µM of 76 to 100%.

As to `Cc1ccc(CC(=O)Nc2nnc(-c3ccccn3)[nH]2)cc1` [drawing 1402], the inhibition at 30 µM was 25 to 50%.

`COc1ccc(COCC(=O)Nc2ccnc(-c3ccccn3)n2)cn1` [drawing 1585]: the inhibition at 30 µM lay within 1 to 25%.

Molecule `O=C(Nc1nnc(-c2ccccn2)[nH]1)C1CCCN(c2cnccn2)C1` (stereo not drawn) [drawing 1439] yielded an inhibition at 30 µM of 76 to 100%.

For `CN1CCN(c2nc(-c3ccccn3)nc3scc(C(=O)NCCc4cnc(O)nc4)c23)CC1` [drawing 1775], the inhibition at 30 µM lay within 25 to 50%.

Consider `O=C(c1csc2c(O)nc(-c3ccccn3)nc12)N1CCNC(Cc2ccccc2)C1` (stereo not drawn) [drawing 1671], for which the inhibition at 30 µM fell in the range of 76 to 100%.

Consider `O=C(Nc1nnc(-c2ccccn2)[nH]1)c1ccc2ccccc2n1` [drawing 1401], for which the inhibition at 30 µM lay within 25 to 50%.

Molecule `CC(C)(C)c1noc(CCC(=O)Nc2nnc(-c3ccccn3)[nH]2)n1` [drawing 1412] returned an inhibition at 30 µM of 25 to 50%.

Take `O=C(Nc1nc(-c2ccccn2)cs1)c1ccc2nccnc2c1` [drawing 1477]: the inhibition at 30 µM fell in the range of 76 to 100%.

Consider `O=C(Nc1nnc(-c2ccccn2)[nH]1)c1csc(-c2ccco2)n1` [drawing 1457], for which the inhibition at 30 µM is 76 to 100%.

`O=C(CC1CCCC1)NCC(=O)Nc1nnc(-c2ccccn2)[nH]1` [drawing 1415]: the inhibition at 30 µM lay within 1 to 25%.

`O=C(c1ccn(-c2ccccc2)n1)N1CCCc2c(O)nc(-c3ccccn3)nc21` [drawing 1546] had an inhibition at 30 µM of 76 to 100%.

The molecule `Oc1nc(-c2ccccn2)nc2c(-c3ccc(Cl)c(Cl)c3)csc12` [drawing 1785] had an inhibition at 30 µM of 76 to 100%.

In the case of `O=c1nc(-c2ccccn2)[nH]c2sc(-c3ccccc3)cc12` [drawing 1495], the inhibition at 30 µM was 76 to 100%.

`O=C(Nc1nnc(-c2ccccn2)[nH]1)c1cccc(NC(=O)C2CCCO2)c1` (stereo not drawn) [drawing 1414]: the inhibition at 30 µM is 51 to 75%.

In turn, `O=C(Nc1nnc(-c2ccccn2)[nH]1)C1CC(=O)N(Cc2cccc(C(F)(F)F)c2)C1` (stereo not drawn) [drawing 1458] had an inhibition at 30 µM of 76 to 100%.

As for `O=C(CCNC(=O)c1ccco1)Nc1nnc(-c2ccccn2)[nH]1` [drawing 1417], the inhibition at 30 µM was in the range of 76 to 100%.

`CC(COCc1ccccc1)C(=O)Nc1nnc(-c2ccccn2)[nH]1` (stereo not drawn) [drawing 1429] registered an inhibition at 30 µM of 25 to 50%.

The molecule `CC(C)(C(=O)Nc1ccnc(-c2ccccn2)n1)c1ccc(C#N)cc1` [drawing 1645] returned an inhibition at 30 µM of 76 to 100%.

Regarding `O=C(Cc1cccc(F)c1)Nc1nc(-c2ccccn2)cs1` [drawing 1484], the inhibition at 30 µM fell in the range of 76 to 100%.

Consider `O=C(Nc1nc(-c2ccccn2)cs1)c1ccncc1` [drawing 1485], for which the inhibition at 30 µM was in the range of 76 to 100%.

`CNC(=O)c1sc2[nH]c(-c3ccccn3)nc(=O)c2c1C` [drawing 1491] displayed an inhibition at 30 µM of 51 to 75%.
